According to PubChem BioAssay AID2060619 (Molecular Pharmacology Branch, DTP, NCI, 2025):
Several values for one entry are separate records, joined by “and”; a condition that tells them apart may be missing. Identical values can stand only once. Values belong to the compound of their own block, whether it stands above or below them.

Tested on: 323965-272-R-J2-PDC complex spheroid viability
Experiment: Anticancer human tumor 323965-272-R-J2-PDC patient-derived pancreatic carcinoma cell line growth inhibition [CLK]
Conditions: for viability, T/C: stronger effect = lower value
Text: A high-throughput screen of multi-cell type tumor spheroids was designed to identify active combinations of […] and targeted small molecules. Complex spheroids include a stromal component modeled by human endothelial cells (HUVEC) and fibroblasts modeled by human mesenchymal stem cells (MSCs). The concentration ranges selected for each drug and investigational agent were based upon clinically achievable concentrations if the clinical Cmax of the agent was known.
Compounds. The drugs and investigational agents: cirtuvivint (SM08502; NSC835563), CC-671 (NSC850746), vemurafenib (NSC761431), tapotoclax (NSC804041), sotorasib (NSC818433), adagrasib (NSC831453), MRTX-1133 (NSC836407), BAY2416964 (NSC825713), copanlisib (NSC816437), inavolisib (NSC800729), abemaciclib (NSC768073), osimertinib (NSC779217), entinostat (NSC756642), eltanexor (KPT-8602, NSC794443), venetoclax (NSC766270), ceralasertib (NSC777638), bortezomib (NSC756655), olaparib (NSC753686), talazoparib (NSC767125), alisertib (NSC759677), peposertib (NSC802822), gemcitabine (NSC613327), 5-fluorouracil (NSC19893), SN-38 (NSC673596), oxaliplatin (NSC266046), paclitaxel (NSC125973), and doxorubicin (NSC123127), were obtained from the National Cancer Institute (NCI) Developmental Therapeutics Program Chemical Repository. The FDA-approved anticancer drug set is available from the Developmental Therapeutics Program at https://dtp.cancer.gov/organization/dscb/obtaining/available plates.htm. […] The stock solutions were prepared in dimethyl sulfoxide (DMSO, Sigma-Aldrich, St. Louis, MO, cat. D2650), except for the platinum complexes which were prepared in saline (Quality Biological, Gaithersburg, MD, cat. 114-055-101), at 800-fold the tested concentration and stored at -70 degrees C prior to their use. All drugs and investigational agents were tested over a range starting from a high concentration at or near the clinical Cmax and decreasing in half-log increments. If the clinical Cmax for an agent had not been determined, the highest concentration tested was 10 microM.
Cell Culture. All cells were maintained in an incubator at 37 degrees C and 5% CO2 with 95% humidity. The PDC lines were cultured according to standard operating procedures established by the NCI PDMR. Briefly, all PDCs were thawed and cultured in Matrigel-coated flasks prepared with a working solution of 1X Ham's F-12 nutrient mix, without supplementation (Invitrogen, Waltham, MA, cat. 11765054), 100 U/mL penicillin-streptomycin (Invitrogen, cat. 15140122), and 2.5% Matrigel (Corning Inc., Corning, NY, cat. 354248) for the first three passages. The 947758-054-R-J2-PDC line was cultured in 6B/Colon 1A media, which includes advanced DMEM/F-12 (Thermo Fisher Scientific, cat. 12634028), 10 mM HEPES (Thermo Fisher Scientific, cat. 15630080), 1X GlutaMAX supplement (Thermo Fisher Scientific, cat. 35050061), 0.1 mg/mL primocin (InvivoGen, cat. ant-pm-2), 10% defined fetal bovine serum, heat inactivated (HyClone Laboratories Inc., cat. SH30070.03HI), 1.25 mM N-Acetyl-L-cysteine (Sigma-Aldrich, cat. A9165), 10 mM nicotinamide (Sigma-Aldrich, cat. N0636), 1X B-27 supplement (Thermo Fisher Scientific, cat. 17504044), 1X N-2 supplement (Thermo Fisher Scientific, cat. 17502048), and 10 microM Y-27632 dihydrochloride (Tocris Bioscience, cat. 1254). The 876862-298-R-J1-PDC was cultured in 6E media, which includes all 6B/Colon 1A media components plus 50% L-WRN conditioned media (ATCC, cat. CRL-3276), 50 ng/mL recombinant human EGF recombinant protein (hEGF; Thermo Fisher Scientific, cat. PHG0311), 10 ng/mL recombinant human fibroblast growth factor 10 (hGFG-10; PeproTech, cat. 100-26), 1 ng/mL recombinant human fibroblast growth factor 2 (hFGF-2; PeproTech, cat. 100-18B), and 1 µM prostaglandin E2 (PGE2; Tocris, cat. 2296). The 227483-062-R1-J1-PDC line was cultured in Panc media, containing all 6E components except hFGF-2, with the addition of 500 nM SB-431542 (Selleckchem, cat. S1067) and 10 nM gastrin (Tocris, cat. 3006). […]

[1] = curve of first compound, second compound 0.0316 µM
[2] = curve of first compound, second compound 0.1 µM
[3] = curve of first compound, second compound 0.316 µM
[4] = curve of first compound, second compound 1 µM
[5] = curve of first compound, second compound 3.16 µM
[6] = curve of first compound, second compound 10 µM
[7] = second compound 0.0316 µM, first compound 0.0316 µM
[8] = second compound 0.0316 µM, first compound 0.1 µM
[9] = second compound 0.0316 µM, first compound 0.316 µM
[10] = second compound 0.0316 µM, first compound 1 µM
[11] = second compound 0.0316 µM, first compound 3.16 µM
[12] = second compound 0.0316 µM, first compound 10 µM
[13] = second compound 0.1 µM, first compound 0.0316 µM
[14] = second compound 0.1 µM, first compound 0.1 µM
[15] = second compound 0.1 µM, first compound 0.316 µM
[16] = second compound 0.1 µM, first compound 1 µM
[17] = second compound 0.1 µM, first compound 3.16 µM
[18] = second compound 0.1 µM, first compound 10 µM
[19] = second compound 0.316 µM, first compound 0.0316 µM
[20] = second compound 0.316 µM, first compound 0.1 µM
[21] = second compound 0.316 µM, first compound 0.316 µM
[22] = second compound 0.316 µM, first compound 1 µM
[23] = second compound 0.316 µM, first compound 3.16 µM
[24] = second compound 0.316 µM, first compound 10 µM
[25] = second compound 1 µM, first compound 0.0316 µM
[26] = second compound 1 µM, first compound 0.1 µM
[27] = second compound 1 µM, first compound 0.316 µM
[28] = second compound 1 µM, first compound 1 µM
[29] = second compound 1 µM, first compound 3.16 µM
[30] = second compound 1 µM, first compound 10 µM
[31] = second compound 3.16 µM, first compound 0.0316 µM
[32] = second compound 3.16 µM, first compound 0.1 µM
[33] = second compound 3.16 µM, first compound 0.316 µM
[34] = second compound 3.16 µM, first compound 1 µM
[35] = second compound 3.16 µM, first compound 3.16 µM
[36] = second compound 3.16 µM, first compound 10 µM
[37] = second compound 10 µM, first compound 0.0316 µM
[38] = second compound 10 µM, first compound 0.1 µM
[39] = second compound 10 µM, first compound 0.316 µM
[40] = second compound 10 µM, first compound 1 µM
[41] = second compound 10 µM, first compound 3.16 µM
[42] = second compound 10 µM, first compound 10 µM
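Also: spheroids exposed to agents for seven days before readout.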
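For viability, T/C in this document: percent of DMSO vehicle control wells so 100% = untreated growth.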

- IC50 [1]: < 31.6 nM
- IC50 [2]: < 31.6 nM
- IC50 [3]: < 31.6 nM
- IC50 [4]: < 31.6 nM
- IC50 [5]: < 31.6 nM
- IC50 [6]: < 31.6 nM
Compound: Nc1ccn(C2OC(CO)C(O)C2(F)F)c(=O)n1 (stereo not drawn) + CNC(=O)c1ccc(Nc2nc(OC3CCCC3)c3c(-c4ccc5nc(C)oc5c4)c[nH]c3n2)c(OC)c1
- viability, T/C [7]: 30.7%
- viability, T/C [8]: 33%
- viability, T/C [9]: 30.3%
- viability, T/C [10]: 27.9%
- viability, T/C [11]: 27.9%
- viability, T/C [12]: 30.4%
- viability, T/C [13]: 37.4%
- viability, T/C [14]: 33.3%
- viability, T/C [15]: 26%
- viability, T/C [16]: 32.3%
- viability, T/C [17]: 30.2%
- viability, T/C [18]: 32.1%
- viability, T/C [19]: 32.9%
- viability, T/C [20]: 27.8%
- viability, T/C [21]: 25.4%
- viability, T/C [22]: 27.8%
- viability, T/C [23]: 28.1%
- viability, T/C [24]: 25.2%
- viability, T/C [25]: 24.2%
- viability, T/C [26]: 21.4%
- viability, T/C [27]: 21.4%
- viability, T/C [28]: 18.9%
- viability, T/C [29]: 17.8%
- viability, T/C [30]: 18.9%
- viability, T/C [31]: 25.6%
- viability, T/C [32]: 22.8%
- viability, T/C [33]: 21.6%
- viability, T/C [34]: 21.2%
- viability, T/C [35]: 19.7%
- viability, T/C [36]: 18.2%
- viability, T/C [37]: 26.7%
- viability, T/C [38]: 23%
- viability, T/C [39]: 24.2%
- viability, T/C [40]: 21.1%
- viability, T/C [41]: 22%
- viability, T/C [42]: 15.8%

- IC50 [1]: 9720 nM
- IC50 [2]: > 10000 nM
- IC50 [3]: 1500 nM
- IC50 [4]: < 31.6 nM
- IC50 [5]: < 31.6 nM
- IC50 [6]: < 31.6 nM
Compound: COc1ccc([C@@H](O)c2cc(-c3ncnc4cc(N5CCOCC5)ccc34)c(F)cc2Cl)nn1 + CNC(=O)c1ccc(Nc2nc(OC3CCCC3)c3c(-c4ccc5nc(C)oc5c4)c[nH]c3n2)c(OC)c1
- viability, T/C [7]: 99.2%
- viability, T/C [8]: 127%
- viability, T/C [9]: 110%
- viability, T/C [10]: 95.3%
- viability, T/C [11]: 79.2%
- viability, T/C [12]: 48.9%
- viability, T/C [13]: 85.9%
- viability, T/C [14]: 79.9%
- viability, T/C [15]: 77.7%
- viability, T/C [16]: 70.7%
- viability, T/C [17]: 63.8%
- viability, T/C [18]: 49.1%
- viability, T/C [19]: 62%
- viability, T/C [20]: 67%
- viability, T/C [21]: 49.9%
- viability, T/C [22]: 52.1%
- viability, T/C [23]: 49.4%
- viability, T/C [24]: 40.3%
- viability, T/C [25]: 49.2%
- viability, T/C [26]: 42.1%
- viability, T/C [27]: 42.6%
- viability, T/C [28]: 43%
- viability, T/C [29]: 40.3%
- viability, T/C [30]: 28.5%
- viability, T/C [31]: 48.7%
- viability, T/C [32]: 41.2%
- viability, T/C [33]: 43.7%
- viability, T/C [34]: 33.5%
- viability, T/C [35]: 32.1%
- viability, T/C [36]: 26.8%
- viability, T/C [37]: 41.4%
- viability, T/C [38]: 47.9%
- viability, T/C [39]: 35.7%
- viability, T/C [40]: 39.8%
- viability, T/C [41]: 31.2%
- viability, T/C [42]: 26.7%

- IC50 (curve of compound): 10.2 nM and 8.51 nM
Compound: CCc1c2c(nc3ccc(O)cc13)-c1cc3c(c(=O)n1C2)COC(=O)[C@]3(O)CC
- viability, T/C (compound 0.00316 µM): 90.2% and 92.5%
- viability, T/C (compound 0.01 µM): 49.5% and 42.7%
- viability, T/C (compound 0.0316 µM): 34.2% and 29.5%
- viability, T/C (compound 0.1 µM): 35.9% and 30.6%
- viability, T/C (compound 0.316 µM): 26.4% and 30.6%
- viability, T/C (compound 1 µM): 26.2% and 20.2%

- IC50 [1]: 5550 nM
- IC50 [2]: 4210 nM
- IC50 [3]: 2300 nM
- IC50 [4]: < 31.6 nM
- IC50 [5]: < 31.6 nM
- IC50 [6]: < 31.6 nM
Compound: CC1(C)CCC(CN2CCN(c3ccc(C(=O)NS(=O)(=O)c4ccc(NCC5CCOCC5)c([N+](=O)[O-])c4)c(Oc4cnc5[nH]ccc5c4)c3)CC2)=C(c2ccc(Cl)cc2)C1 + CNC(=O)c1ccc(Nc2nc(OC3CCCC3)c3c(-c4ccc5nc(C)oc5c4)c[nH]c3n2)c(OC)c1
- viability, T/C [7]: 102%
- viability, T/C [8]: 93.4%
- viability, T/C [9]: 98.7%
- viability, T/C [10]: 93%
- viability, T/C [11]: 89.9%
- viability, T/C [12]: 8.02%
- viability, T/C [13]: 87.4%
- viability, T/C [14]: 94.4%
- viability, T/C [15]: 78.8%
- viability, T/C [16]: 80.2%
- viability, T/C [17]: 65.6%
- viability, T/C [18]: 7.13%
- viability, T/C [19]: 67.7%
- viability, T/C [20]: 69%
- viability, T/C [21]: 64.7%
- viability, T/C [22]: 58.7%
- viability, T/C [23]: 47.3%
- viability, T/C [24]: 7.29%
- viability, T/C [25]: 44.1%
- viability, T/C [26]: 45.9%
- viability, T/C [27]: 45.2%
- viability, T/C [28]: 42%
- viability, T/C [29]: 36.1%
- viability, T/C [30]: 7.06%
- viability, T/C [31]: 39.5%
- viability, T/C [32]: 41.8%
- viability, T/C [33]: 43.5%
- viability, T/C [34]: 36.1%
- viability, T/C [35]: 37%
- viability, T/C [36]: 7.39%
- viability, T/C [37]: 36.7%
- viability, T/C [38]: 36.2%
- viability, T/C [39]: 41.5%
- viability, T/C [40]: 33.7%
- viability, T/C [41]: 32.6%
- viability, T/C [42]: 8.69%
